Patent publication US7270968B2, “PTH analogs for renal osteodystrophy and related uses” (The General Hospital Corporation, priority 2000, dated 2007)
Where two headings read alike, the source gives them in different places. Each block holds one compound with its values, some of them ahead of it.

Assays:
[1] = system: CPTHR; assay: Downregulation of CPTHR binding in C59 cells after pretreatment; format: cell-based, mouse; settings: for Downregulation of CPTHR binding: exposure 24 hr; for Radioligand binding, % of controls after drug removal: 24 h after removal; for Reduction of specific binding / Reduction of specific 125I-[Tyr34]hPTH(19-84) binding: preincubation 16 h
Procedure: Specific binding, is expressed as mean ± standard deviation of triplicates. * p<0.05, ** P<0.01.
For binding experiments, cells (100,000 cells/ml) were plated in 24-well dishes and cultured at 33° C. for 7 to 14 days. […] Receptor number was ascertained by Scatchard analysis, using [Tyr^34]hPTH-(19-84) or hPTH(1-84) as competing ligand. […] In some experiments, cells were washed with acidic buffer (50 mM glycine, 150 mM NaCl, pH 4.0) to remove residual bound ligand, prior to addition of radioligand.
(1 mM), forskolin (10 μM), insulin (100 ng/mL), IGF-1 ([…]) or dexamethasone (100 nM).

[2] = molecular target: T1, PTH1R (Homo sapiens, UniProt Q03431); settings: cited from earlier work
T1 sequence (Q03431 27-593): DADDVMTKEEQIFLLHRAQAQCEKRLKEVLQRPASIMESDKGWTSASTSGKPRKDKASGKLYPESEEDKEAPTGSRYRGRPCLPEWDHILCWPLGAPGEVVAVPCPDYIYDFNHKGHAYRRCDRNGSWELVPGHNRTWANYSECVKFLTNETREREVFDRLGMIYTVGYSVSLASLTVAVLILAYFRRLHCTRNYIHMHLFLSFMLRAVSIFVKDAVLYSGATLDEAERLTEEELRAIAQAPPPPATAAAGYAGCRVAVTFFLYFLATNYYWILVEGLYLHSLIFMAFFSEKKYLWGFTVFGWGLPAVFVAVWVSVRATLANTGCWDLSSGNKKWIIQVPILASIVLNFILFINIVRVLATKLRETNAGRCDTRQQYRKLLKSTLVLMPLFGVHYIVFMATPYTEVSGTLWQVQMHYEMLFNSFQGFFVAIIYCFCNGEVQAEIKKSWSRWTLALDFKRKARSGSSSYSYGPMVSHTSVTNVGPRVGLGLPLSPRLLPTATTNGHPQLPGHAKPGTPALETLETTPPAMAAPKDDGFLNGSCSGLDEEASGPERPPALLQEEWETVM

[3] = system: CPTHR; assay: Competitive displacement of 125I-[Tyr34]hPTH(19-84) radioligand in C59 (OC59) cells; format: binding, mouse; settings: for Binding to the CPTHR: Example 2, either alone or in combination
Procedure: The human PTH peptides shown were tested for their ability to displace the ^125I-[Tyr^34]hPTH(19-84) tracer in C59 cells. Experiments were performed as described in FIG. 1. Results are expressed as the percentage of maximal specific binding observed in the absence of competing ligand and are shown as mean±standard deviation of triplicates in this representative experiment.
OC59 cells were incubated at 15° C. for 4 hr with ^125I[Tyr^34]hPTH(19-84) tracer (150,000 cpn/well) plus the indicated competing human PTH peptides. Results are means of triplicates.
The [Tyr^34]hPTH(19-84) peptide was radioiodinated with Na[^125I](2000 Ci/mmol) by the chloramine-T method and purified by HPLC, as previously described (Inomata, N., et al., Endocrinology 136:4732-4740 (1995)). For binding experiments, cells (100,000 cells/ml) were plated in 24-well dishes and cultured at 33° C. for 7 to 14 days. Confluent monolayers then were washed with 0.5 ml binding buffer [100 mM NaCl, 5 mM KCl, 2 mM CaCl2, 50 mM Tris-HCl (pH 7.8) plus 5% heat-inactivated horse serum] before incubation with ^125I-[Tyr^34]hPTH-(19-84) (100,000-200,000 cpm/well) in 0.5 ml binding buffer for 4 h at 15° C. Receptor number was ascertained by Scatchard analysis, using [Tyr^34]hPTH-(19-84) or hPTH(1-84) as competing ligand. […] In some experiments, cells were washed with acidic buffer (50 mM glycine, 150 mM NaCl, pH 4.0) to remove residual bound ligand, prior to addition of radioligand.

[4] = system: Gs-linked PTH receptors; assay: Cyclic AMP accumulation in C cells (OC1, OC14, OC59); format: cell-based, mouse; settings: three C cells
Procedure: The buffer then was rapidly aspirated, the plates were frozen in liquid nitrogen, and the frozen cells were subsequently thawed directly into 0.5 ml of 50 mM HCl. Cell-associated cAMP in the acid extracts was measured using an RIΛ kit (NUN Life Science Products, Boston, Mass., U.S.A.). Results were expressed as picomoles of cAMP produced per well over 15 min.

[5] = system: OC14 cells; assay: Cell death by trypan blue staining in OC14 cells; format: cell-based, mouse
Procedure: OC14 cells were plated, cultured at 33° C. for 3 days and then incubated at 39° C. for 5-7 days before addition of PTH peptides for a further 16 hr, followed by trypan blue staining (see Example 1). A) Human PTH 1-84 dose response, B) Response to hPTH(1-84), 100 nM and hPTH(39-84), 1000 nM, C) Response to [Tyr^34]hPTH(24-84), 100 nM, D) Caspase dependance (“C”=controls) The Caspase-3 inhibitor DEVD (“D”) was added 1 hr prior to addition of 100 nM hPTH(1-84) (“P”). Results are expressed as mean±SD of quadruplicate determinations of the percentage of nonvital trypan blue-stained cells. * p<0.05, ** p<0.01.
Briefly, cells were plated at 50,000 cells/well in 24-well dishes at 33° C. and shifted to nonpermissive conditions (39° C.) after 2 days. Cells were grown at 39° C. for an additional 4-6 days in α-MEM supplemented with 2.5% of FBS and 1% PS and then treated with different hormones for additional 16-18 hr. Non-adherent cells were combined with adherent cells that were released from the cultures with trypsin-EDTA, centrifuged and resuspended in 0.1% trypan blue solution.

[6] = system: Gs-linked PTH receptors; settings: F1 cells and osteoblastic subclones; cited from earlier work
[7] = system: C×43 expression; assay: Connexin 43 immunocytochemical staining in OC cells; format: cell-based, mouse; settings: 100 nM, 2 hr
Procedure: OC14 cells were plated on glass coverslips at 72,000 cells/cm^2, cultured at 33° C. for 2 days and then shifted at 39° C. for 3-5 days before stimulation with CPTHR ligands. OC14 cells were treated for 2 hr with (A) vehicle alone, (B) 100 nM hPTH(1-84) or (C) 1000 nm hPTH(39-84). Cells were fixed and stained for C×43 expression as described (see Example 1).
For Immunocytochemical analysis, cells were plated on glass chamber slides at 72,000 cells/cm^2, cultured for two days at 33° C. and then shifted for an additional 4-6 days at 39° C. Cells were treated with vehicle alone (0.1% TFA) or with the appropriate hormone for the time indicated. The immunocytochemical staining was performed as previously described (Kato, Y., et al., J. Bone Miner. Res. 12:2014-2023 (1997)). Briefly, cells were fixed in 3% paraformaldehyde/2% sucrose in PBS and permeabilized for 5 min. with 0.05% Triton-X 100 diluted in PBS. The fixed slides were blocked in 5% BSA in TBS-T buffer for 2 h at room temperature. The cells then were incubated with a 1:125 dilution of anti-C×43 monoclonal antibody for 30 min at room temperature. The bound antibody was detected using a Vectastain ABC kit, followed by staining with VIP substrate according to manufacturer's instructions (Vector Laboratories, Burlingame, Calif.). Counter staining was performed using 0.5% methyl green. […]

[8] = system: OC14 cells; assay: Apoptosis by Hoechst 33258 DNA staining in OC cells; format: cell-based, mouse; settings: 100 nM, 6 hr
Procedure: (§1) Cells plated on glass coverslips and maintained at 33° C. for 33 days were shifted to 39° C. for 5-7 days before addition of 100 nM hPTH(1-84) (B, D) or vehicle alone (A, C) for 6 hr. At the end of the incubations, cells were fixed and stained with Hoechst 33258 (A and B) or for TUNEL (C and D) (see Example 1). Arrows indicate apoptotic cells. 200× magnification.
(§2) The pyknotic fragmentation of nuclei typical of apoptotic cells was detected using Hoechst-33258 fluorescent dye (Sigma Co., St. Louis, Mo., U.S.A.). Briefly, cells were cultured on glass coverslips and maintained in culture at nonpermissive conditions for 4-6 days in (α-MEM supplemented with 2-5% of FBS and 1% PS. After exposure to the test hormones for 6 hr, culture medium was aspirated and cells were fixed in 4% paraformaldehyde in phosphate buffered solution and then stained with Hoechst-33258 ([…]) for 5 min at room temperature. Cells were washed and mounted with glycerol-PBS (9:1, v/v). The stained nuclei were visualized by fluorescence microscopy using DAPI filter. In some experiments, apoptotic cells were detected by the terminal deoxynucleotidyl transferase-mediated nick end labeling (TUNEL) reaction, using the In Situ Cell Death Detection Kit from Roche Molecular Biochemicals (Indianapolis, Ind., U.S.A.) following the manufacturer's instruction.

[9] = system: OC14 cells; assay: Apoptosis by TUNEL assay in OC cells; format: cell-based, mouse; settings: 100 nM, 6 hr
Procedure: as §1, §2

Compound: C=C1/C(=C\C=C2/CCC[C@]3(C)[C@@H]([C@H](C)CCCC(C)(C)O)CC[C@@H]23)C[C@@H](O)C[C@@H]1O [1,25(OH)2D3]
- Downregulation of CPTHR binding ([1]; 10 nM): No downregulation

Compound: CCCCCCCCCCCCCC(=O)O[C@@H]1[C@@H](C)[C@@]2(O)[C@@H](C=C(CO)C[C@]3(O)C(=O)C(C)=C[C@@H]23)[C@H]2C(C)(C)[C@]12OC(C)=O [TPA]
- Radioligand binding, % of controls after drug removal [1]: 63%
- Reduction of specific binding ([1]; 10 nM): 48±12%

Compound: C[C@H](CCC(=O)O)C[C@H](C)C[C@H](C)C(=O)/C=C(\O)[C@H](C)C[C@H](C)C/C=C/[C@@H](C)[C@@H](O)[C@@H](C)[C@@H](O)C[C@@H]1CC[C@@](C)([C@H]2CC[C@@](C)([C@@H](C)O)O2)O1 [ionomycin]
- Radioligand binding, % of controls after drug removal [1]: 100%
- Reduction of specific binding ([1]; 1 μM): 71±3%

Compound: IGF-1: IGF-1
- Downregulation of CPTHR binding [1]: No downregulation

Compound: PTH(53-84): Carboxyl fragment 53-84 of intact PTH (KKEDNVLVESHEKSLGEADKADVNVLTKAKSQ; Parathyroid hormone; UniProt P01270 84-115, looked up, fragment)
- Binding and activation of the PTH1R [2]: neither bind nor activate

Compound: hPTH(1-34): Amino-terminal human PTH fragment 1-34
- Displacement of the tracer ([3]; concentrations up to 1000 nM): did not displace the tracer significantly
- Downregulation of CPTHR binding ([1]; 1 μM): No downregulation
- cAMP response [4]: absence of a detectable cAMP response
- Effect on cell death (trypan blue) ([5]; concentrations as high as 1000 nM): inactive
- cAMP response [6]: no detectable cAMP response

Compound: hPTH(1-84): Recombinant human parathyroid hormone (1-84), the intact hormone
- Reduction of specific 125I-[Tyr34]hPTH(19-84) binding ([1]; 200 nM): 19±5%
- Reduction of specific 125I-[Tyr34]hPTH(19-84) binding ([1]; 1000 nM): 66±7%
- cAMP response [4]: absence of a detectable cAMP response
- Expression of C×43 by immunostaining [7]: increased the expression of C×43
- Nuclear pyknosis and chromatin condensation, Hoechst dye 33258 [8]: increased nuclear pylulosis ;aid chromatin condensation
- Apoptosis, TUNEL immunocytochemical assay [9]: Increased apoptosis
- Concentration of maximal effect upon cell death ([5]; 16 hr, trypan blue): 10 nM
- EC50 ([5]; 16 hr, trypan blue, read-out: EC50, effect upon cell death): ~0.0001 µM
- Change in trypan blue-stained cells ([5]; after 16 hr): doubling
- cAMP response [6]: no detectable cAMP response

Compound: hPTH(20-30): Short synthetic human PTH peptide spanning residues 20-30 (RVEWLRKKLQD; Parathyroid hormone; UniProt P01270 51-61, looked up, fragment)
- Binding to the CPTHR [3]: failed to bind

- EC50 ([3]; Example 2, PTH1R-null CPTHR-expressing calvarial-derived clonal cells, read-out: apparent EC50, competition of [Tyr34]125I-hPTH(19-84) tracer): 20 µM
Compound: hPTH(24-54): Short synthetic human PTH peptide spanning both binding domains 24-27 and 53-54 (LRKKLQDVHNFVALGAPLAPRDAGSQRPRKK; Parathyroid hormone; UniProt P01270 55-85, looked up, fragment)

- IC50 ([3]; C59 cells, 4 h at 15° C.): 0.5 to 0.7 µM
- IC50 relative to hPTH(1-84) and hPTH(19-84) ([3]; OC cells): roughly 15 fold
Compound: hPTH(39-84): C-terminal human PTH fragment 39-84, purchased from Peninsula (APLAPRDAGSQRPRKKEDNVLVESHEKSLGEADKADVNVLTKAKSQ; Parathyroid hormone; UniProt P01270 70-115, looked up, fragment)
- Downregulation of CPTHR binding ([1]; 1 μM): No downregulation
- Increase in trypan blue-stained cells over basal ([5]; 1000 nM, 16 hr): 1.5 fold
- Binding and activation of the PTH1R [2]: neither bind nor activate

Compound: hPTH(50-60): Short synthetic human PTH peptide spanning residues 50-60 (RPRKKEDNVLV; Parathyroid hormone; UniProt P01270 81-91, looked up, fragment)
- Binding to the CPTHR [3]: failed to bind

Compound: hPTHrP(1-36): Human PTH-related peptide fragment 1-36
- cAMP response [6]: no detectable cAMP response

Compound: insulin: insulin
- Downregulation of CPTHR binding ([1]; 100 ng/mL): No downregulation
